Reference: ChEMBL document CHEMBL1201862, “PubChem BioAssay data set” (2004)
Active and inactive are the calls of the source.

Columns and labels:
[1] = molecular target: Melanin-concentrating hormone receptor 1 (Homo sapiens, UniProt Q99705); assay: Fluorescence-based counterscreen for antagonists of the G-protein coupled receptor 7 (GPR7): cell-based high throughput dose response assay to identify antagonists of the melanin-concentrating hormone receptor 1 (MCHR1).; assay type: functional
[2] = molecular target: T1, Neuropeptides B/W receptor type 1 (Homo sapiens, UniProt P48145); assay: Fluorescence-based dose response cell-based high throughput screening assay to identify antagonists of the G-protein coupled receptor 7 (GPR7). [Related pubchem assays: 1952 (Screening assay (GPR7 antagonists).), 1880 (Summary AID.)]; assay type: functional
T1 sequence (P48145 whole entry): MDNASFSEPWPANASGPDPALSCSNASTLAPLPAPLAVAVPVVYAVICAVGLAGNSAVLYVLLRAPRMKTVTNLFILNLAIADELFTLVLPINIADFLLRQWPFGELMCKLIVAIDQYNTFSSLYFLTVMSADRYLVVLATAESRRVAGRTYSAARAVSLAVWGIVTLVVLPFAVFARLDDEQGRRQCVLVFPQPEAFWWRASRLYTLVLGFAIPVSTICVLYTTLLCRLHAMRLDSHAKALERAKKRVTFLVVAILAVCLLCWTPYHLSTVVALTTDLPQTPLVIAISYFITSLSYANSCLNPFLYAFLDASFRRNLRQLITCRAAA

[3] = molecular target: Voltage-dependent T-type calcium channel subunit alpha-1H (Homo sapiens, UniProt O95180); assay type: functional;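 note: channel activity triggered by adding a high calcium stimulation buffer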
Vero = assay: host cell viability loss, Vero E6 – synthesized analogs, cytotoxicity control for West Nile virus antiviral project, SAR follow-up (AID 2244); assay type: functional; conditions: Chlorocebus sabaeus
Cytochrome P450 1A2 = molecular target: T2, Cytochrome P450 1A2 (Homo sapiens, UniProt P05177);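 note: PubChem cytochrome P450 panel assay, CYP1A2 panel member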
T2 sequence (P05177 whole entry): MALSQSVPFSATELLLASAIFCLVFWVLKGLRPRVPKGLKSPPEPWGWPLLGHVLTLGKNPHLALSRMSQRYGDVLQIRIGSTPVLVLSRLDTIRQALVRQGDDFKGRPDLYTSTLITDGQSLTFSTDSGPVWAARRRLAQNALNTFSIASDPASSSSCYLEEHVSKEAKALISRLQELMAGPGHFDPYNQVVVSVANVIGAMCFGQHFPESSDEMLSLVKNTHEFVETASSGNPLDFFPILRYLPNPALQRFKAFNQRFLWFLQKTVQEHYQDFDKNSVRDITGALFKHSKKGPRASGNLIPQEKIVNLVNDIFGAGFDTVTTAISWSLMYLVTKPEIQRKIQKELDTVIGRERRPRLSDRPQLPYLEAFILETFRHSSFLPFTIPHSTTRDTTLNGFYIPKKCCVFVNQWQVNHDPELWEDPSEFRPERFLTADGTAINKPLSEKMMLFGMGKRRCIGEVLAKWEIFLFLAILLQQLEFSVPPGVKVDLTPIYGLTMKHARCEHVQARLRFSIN

Cytochrome P450 2C9 [4] = molecular target: T3, Cytochrome P450 2C9 (Homo sapiens, UniProt P11712)
T3 sequence (P11712 whole entry): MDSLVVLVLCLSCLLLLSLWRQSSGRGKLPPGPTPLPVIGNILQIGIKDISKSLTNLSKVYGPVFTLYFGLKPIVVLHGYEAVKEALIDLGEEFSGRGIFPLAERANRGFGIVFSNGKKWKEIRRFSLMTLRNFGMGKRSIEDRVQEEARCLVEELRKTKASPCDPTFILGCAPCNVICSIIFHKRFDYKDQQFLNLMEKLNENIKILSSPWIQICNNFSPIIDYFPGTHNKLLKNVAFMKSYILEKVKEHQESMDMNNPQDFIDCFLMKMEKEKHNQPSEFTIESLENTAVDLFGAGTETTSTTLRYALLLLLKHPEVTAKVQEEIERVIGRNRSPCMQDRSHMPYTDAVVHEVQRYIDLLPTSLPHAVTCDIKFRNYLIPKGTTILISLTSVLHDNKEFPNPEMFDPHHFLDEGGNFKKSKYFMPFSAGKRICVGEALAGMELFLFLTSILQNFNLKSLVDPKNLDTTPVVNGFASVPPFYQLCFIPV

Cytochrome P450 2C9 [5] = molecular target: T3, Cytochrome P450 2C9; conditions: Potency
HEK293 = assay: Fluorescence-based counterscreen for potentiators or agonists of NPY-Y1: cell-based high-throughput dose response assay for inhibitors of cyclic nucleotide gated ion channel (CNGC) activity. In this assay, the parental HEK293 cell line transfected with a cyclic-nucleotide gated ion channel (CNGC)-based cAMP sensor is used to measure inhibition of isoproterenol-induced CNGC …; assay type: functional; conditions: Homo sapiens
[6] = molecular target: T4, Neuropeptide Y receptor type 2 (Homo sapiens, UniProt P49146); assay: Fluorescence-based counterscreen for agonists of NPY-Y1: cell-based high-throughput dose response assay for agonists of NPY-Y2.; assay type: functional
T4 sequence (P49146 whole entry): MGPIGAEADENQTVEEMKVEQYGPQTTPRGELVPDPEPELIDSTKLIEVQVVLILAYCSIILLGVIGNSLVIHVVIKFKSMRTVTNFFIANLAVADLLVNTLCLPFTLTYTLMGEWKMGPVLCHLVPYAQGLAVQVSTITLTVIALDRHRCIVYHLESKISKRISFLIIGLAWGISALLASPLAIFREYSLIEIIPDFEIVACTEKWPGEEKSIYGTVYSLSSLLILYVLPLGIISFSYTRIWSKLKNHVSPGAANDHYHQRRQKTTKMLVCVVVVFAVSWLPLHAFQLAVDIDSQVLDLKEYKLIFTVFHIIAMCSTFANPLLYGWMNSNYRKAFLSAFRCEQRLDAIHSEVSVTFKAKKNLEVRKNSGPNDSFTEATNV

[7] = molecular target: T5, Neuropeptide Y receptor type 1 (Homo sapiens, UniProt P25929); assay: Fluorescence-based dose response cell-based high-throughput screening assay for agonists of NPY-Y1. [Related pubchem assays: 1697 (Screening assay (NPY-Y1 agonists).), 1359 (Screening assay (NPY-Y2 potentiators or agonists).), 1304 (Screening assay (NPY-Y1 potentiators or agonists).), 1704 (Screening assay (CNGC inhibitors).), 1791 (Summary AID.)]; assay type: functional
T5 sequence (P25929 whole entry): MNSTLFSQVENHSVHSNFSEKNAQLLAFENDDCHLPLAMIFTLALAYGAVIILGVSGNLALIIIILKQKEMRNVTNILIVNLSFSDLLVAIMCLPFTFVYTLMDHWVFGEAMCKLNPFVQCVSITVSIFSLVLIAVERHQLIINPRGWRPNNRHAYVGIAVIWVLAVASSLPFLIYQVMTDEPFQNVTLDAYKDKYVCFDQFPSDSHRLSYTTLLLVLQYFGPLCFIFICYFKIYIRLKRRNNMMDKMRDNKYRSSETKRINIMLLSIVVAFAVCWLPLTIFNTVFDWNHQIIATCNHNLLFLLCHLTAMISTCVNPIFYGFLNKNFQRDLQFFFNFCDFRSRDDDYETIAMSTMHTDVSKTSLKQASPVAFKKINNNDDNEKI

[8] = molecular target: Heat shock 70 kDa protein 1A (Homo sapiens, UniProt P0DMV8); assay: inhibition of Hsp70 binding activity – biochemical, fluorescence polarization, SAR follow-up (AID 1072)
Sequence of Heat shock 70 kDa protein 1A (P0DMV8 whole entry): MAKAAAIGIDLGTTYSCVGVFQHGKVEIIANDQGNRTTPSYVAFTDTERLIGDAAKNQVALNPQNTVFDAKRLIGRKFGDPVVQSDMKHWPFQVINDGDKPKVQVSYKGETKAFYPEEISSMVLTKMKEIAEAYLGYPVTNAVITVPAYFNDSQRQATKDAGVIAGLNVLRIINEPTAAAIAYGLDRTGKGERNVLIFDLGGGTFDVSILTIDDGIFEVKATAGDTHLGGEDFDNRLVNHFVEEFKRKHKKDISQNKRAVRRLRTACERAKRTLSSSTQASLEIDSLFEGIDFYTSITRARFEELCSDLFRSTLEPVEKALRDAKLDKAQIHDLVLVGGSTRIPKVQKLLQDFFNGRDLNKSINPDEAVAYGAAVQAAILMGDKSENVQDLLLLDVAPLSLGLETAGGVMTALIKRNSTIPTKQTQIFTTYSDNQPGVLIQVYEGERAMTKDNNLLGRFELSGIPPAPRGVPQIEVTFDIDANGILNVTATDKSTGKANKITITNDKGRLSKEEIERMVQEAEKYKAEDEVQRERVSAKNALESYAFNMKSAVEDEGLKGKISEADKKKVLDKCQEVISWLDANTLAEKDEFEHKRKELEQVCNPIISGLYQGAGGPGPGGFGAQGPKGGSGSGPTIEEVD

[9] = molecular target: Heat shock cognate 71 kDa protein (Homo sapiens, UniProt P11142); assay: In Vitro Hsc70 Dose Response Fluorescence Polarization Assay. [Related pubchem assays: 1072 ]
Sequence of Heat shock cognate 71 kDa protein (P11142 whole entry): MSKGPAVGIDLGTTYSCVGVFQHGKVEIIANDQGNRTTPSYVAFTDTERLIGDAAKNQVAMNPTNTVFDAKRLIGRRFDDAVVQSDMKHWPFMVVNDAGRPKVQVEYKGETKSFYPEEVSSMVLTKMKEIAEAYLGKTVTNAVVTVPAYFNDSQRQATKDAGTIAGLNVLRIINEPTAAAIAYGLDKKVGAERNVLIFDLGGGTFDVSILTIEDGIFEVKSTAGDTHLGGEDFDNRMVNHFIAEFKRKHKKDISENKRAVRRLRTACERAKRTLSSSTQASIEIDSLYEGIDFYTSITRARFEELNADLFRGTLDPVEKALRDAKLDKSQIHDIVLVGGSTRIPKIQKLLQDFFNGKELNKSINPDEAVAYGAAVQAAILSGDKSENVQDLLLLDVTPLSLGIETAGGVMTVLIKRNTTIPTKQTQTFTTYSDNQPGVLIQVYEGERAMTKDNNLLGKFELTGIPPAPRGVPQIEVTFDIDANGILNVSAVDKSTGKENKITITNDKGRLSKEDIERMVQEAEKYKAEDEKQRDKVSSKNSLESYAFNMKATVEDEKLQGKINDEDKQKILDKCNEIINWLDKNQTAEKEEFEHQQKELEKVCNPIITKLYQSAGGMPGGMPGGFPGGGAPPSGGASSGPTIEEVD

[10] = molecular target: T6, Dual specificity protein phosphatase 6 (Rattus norvegicus, UniProt Q64346); assay type: functional
T6 sequence (Q64346 whole entry): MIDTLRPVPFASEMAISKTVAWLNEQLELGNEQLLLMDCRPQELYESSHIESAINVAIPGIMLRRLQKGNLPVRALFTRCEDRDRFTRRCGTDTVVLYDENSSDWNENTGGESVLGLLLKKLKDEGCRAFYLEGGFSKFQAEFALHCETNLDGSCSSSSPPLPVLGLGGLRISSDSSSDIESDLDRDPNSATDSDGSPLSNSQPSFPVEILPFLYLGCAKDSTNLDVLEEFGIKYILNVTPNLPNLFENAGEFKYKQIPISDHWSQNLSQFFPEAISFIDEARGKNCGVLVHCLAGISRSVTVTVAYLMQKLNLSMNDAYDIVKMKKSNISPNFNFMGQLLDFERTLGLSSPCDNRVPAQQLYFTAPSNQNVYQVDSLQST

[11] = molecular target: T6, Dual specificity protein phosphatase 6
[12] = molecular target: T7, Tyrosine-protein phosphatase non-receptor type 7 (Homo sapiens, UniProt P35236); assay type: functional
T7 sequence (P35236 whole entry): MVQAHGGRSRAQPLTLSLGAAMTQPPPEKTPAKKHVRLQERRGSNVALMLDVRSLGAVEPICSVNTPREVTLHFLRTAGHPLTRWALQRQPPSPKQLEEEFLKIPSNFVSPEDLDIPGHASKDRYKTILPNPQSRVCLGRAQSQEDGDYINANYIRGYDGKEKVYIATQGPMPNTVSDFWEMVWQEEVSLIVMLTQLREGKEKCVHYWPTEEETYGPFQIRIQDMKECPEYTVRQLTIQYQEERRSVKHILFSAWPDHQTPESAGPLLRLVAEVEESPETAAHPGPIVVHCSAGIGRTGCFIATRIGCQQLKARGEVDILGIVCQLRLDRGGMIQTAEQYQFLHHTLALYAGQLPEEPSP

[13] = molecular target: Glyceraldehyde-3-phosphate dehydrogenase (Homo sapiens, UniProt P04406)
Aspartyl aminopeptidase = Aspartyl aminopeptidase (Plasmodium falciparum 3D7, UniProt Q8I2J3)
Sequence of Aspartyl aminopeptidase (Q8I2J3 whole entry, the tested form may be a part): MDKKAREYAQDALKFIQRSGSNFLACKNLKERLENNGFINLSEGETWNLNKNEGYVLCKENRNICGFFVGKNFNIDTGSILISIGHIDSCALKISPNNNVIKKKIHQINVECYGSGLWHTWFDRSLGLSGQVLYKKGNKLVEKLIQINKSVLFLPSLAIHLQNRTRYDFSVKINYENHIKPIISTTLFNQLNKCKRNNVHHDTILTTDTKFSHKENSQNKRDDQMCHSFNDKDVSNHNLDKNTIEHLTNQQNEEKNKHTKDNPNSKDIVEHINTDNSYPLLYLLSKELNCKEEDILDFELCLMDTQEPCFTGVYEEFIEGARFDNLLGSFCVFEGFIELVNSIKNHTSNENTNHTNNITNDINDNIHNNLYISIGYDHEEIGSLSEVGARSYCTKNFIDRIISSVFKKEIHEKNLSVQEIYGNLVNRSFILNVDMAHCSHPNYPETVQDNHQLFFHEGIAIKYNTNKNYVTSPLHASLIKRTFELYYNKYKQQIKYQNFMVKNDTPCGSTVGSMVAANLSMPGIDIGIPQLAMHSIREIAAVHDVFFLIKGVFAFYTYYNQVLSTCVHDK

[14] = molecular target: T8, RNA-binding protein pos-1 (Caenorhabditis elegans, UniProt G5EF15); assay: disruptors of C. elegans POS-1 RNA interaction – biochemical, fluorescence polarization, dose response (AID 1964);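 note: purified POS-1 fused to maltose binding protein made in E. coli; potency of compounds blocking POS-1 binding to fluorescent RNA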
T8 sequence (G5EF15 whole entry): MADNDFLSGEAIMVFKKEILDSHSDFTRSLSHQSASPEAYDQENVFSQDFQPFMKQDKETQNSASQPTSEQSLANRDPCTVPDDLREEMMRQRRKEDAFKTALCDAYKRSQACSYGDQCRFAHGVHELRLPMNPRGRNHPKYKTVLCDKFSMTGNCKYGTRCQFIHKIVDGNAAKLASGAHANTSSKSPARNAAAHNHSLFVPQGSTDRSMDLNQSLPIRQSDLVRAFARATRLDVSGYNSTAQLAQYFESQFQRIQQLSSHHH

Estrogen receptor beta [15] = molecular target: T9, Estrogen receptor beta (Homo sapiens, UniProt Q92731); assay: blockers of SRC-3 recruitment to ERβ – biochemical, ELISA, streptavidin-HRP readout, orthogonal assay, confirmation (AID 1060)
T9 sequence (Q92731 whole entry): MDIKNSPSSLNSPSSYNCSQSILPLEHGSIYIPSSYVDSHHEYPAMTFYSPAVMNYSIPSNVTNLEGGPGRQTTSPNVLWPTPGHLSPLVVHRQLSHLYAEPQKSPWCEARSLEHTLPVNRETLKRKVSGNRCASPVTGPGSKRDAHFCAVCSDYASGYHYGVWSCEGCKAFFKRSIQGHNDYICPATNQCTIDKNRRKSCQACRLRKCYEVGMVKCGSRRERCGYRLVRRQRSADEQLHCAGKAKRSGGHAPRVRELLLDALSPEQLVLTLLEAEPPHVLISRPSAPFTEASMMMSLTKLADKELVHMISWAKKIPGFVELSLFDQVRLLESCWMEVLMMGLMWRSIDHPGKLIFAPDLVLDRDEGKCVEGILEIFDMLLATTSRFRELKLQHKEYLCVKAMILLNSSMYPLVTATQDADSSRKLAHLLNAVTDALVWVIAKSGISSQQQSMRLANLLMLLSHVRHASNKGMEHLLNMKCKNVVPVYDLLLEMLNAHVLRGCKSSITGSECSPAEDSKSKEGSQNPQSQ

Estrogen receptor beta [16] = molecular target: T9, Estrogen receptor beta
[17] = molecular target: T10, Zinc finger protein mex-5 (Caenorhabditis elegans, UniProt Q9XUB2); assay: potency of MEX-5 RNA-binding blockers – biochemical, C. elegans, fluorescence polarization, dose response (AID 1960)
T10 sequence (Q9XUB2 whole entry): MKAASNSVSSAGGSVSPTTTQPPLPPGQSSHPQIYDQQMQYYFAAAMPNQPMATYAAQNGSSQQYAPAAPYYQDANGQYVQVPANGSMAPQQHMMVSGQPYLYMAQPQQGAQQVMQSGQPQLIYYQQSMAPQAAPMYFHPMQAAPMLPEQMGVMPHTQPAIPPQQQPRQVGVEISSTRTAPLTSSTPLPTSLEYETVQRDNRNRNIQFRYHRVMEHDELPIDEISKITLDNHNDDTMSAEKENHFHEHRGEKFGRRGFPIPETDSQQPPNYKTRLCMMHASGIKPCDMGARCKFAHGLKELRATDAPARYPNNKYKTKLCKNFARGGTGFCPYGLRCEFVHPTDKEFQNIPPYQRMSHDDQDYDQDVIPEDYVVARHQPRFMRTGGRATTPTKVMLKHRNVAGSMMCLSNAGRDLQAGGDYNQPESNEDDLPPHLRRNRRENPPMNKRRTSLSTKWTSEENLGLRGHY

Procathepsin L = Procathepsin L (Homo sapiens, UniProt P07711)
Sequence of Procathepsin L (P07711 whole entry): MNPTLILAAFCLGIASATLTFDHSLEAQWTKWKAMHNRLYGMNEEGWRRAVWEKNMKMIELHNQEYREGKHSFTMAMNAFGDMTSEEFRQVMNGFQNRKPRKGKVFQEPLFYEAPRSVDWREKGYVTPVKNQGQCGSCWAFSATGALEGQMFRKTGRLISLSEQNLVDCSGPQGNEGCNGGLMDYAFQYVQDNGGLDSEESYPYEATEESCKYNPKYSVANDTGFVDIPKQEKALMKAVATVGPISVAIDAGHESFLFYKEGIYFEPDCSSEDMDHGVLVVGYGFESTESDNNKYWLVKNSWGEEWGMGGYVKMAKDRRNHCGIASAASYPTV

Large T antigen = Large T antigen (Simian virus 40, UniProt P03070); assay type: functional, Betapolyomavirus macacae;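 note: Confirmatory-stage PubChem screen for compounds that inhibit SV40 T antigen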
Sequence of Large T antigen (P03070 whole entry): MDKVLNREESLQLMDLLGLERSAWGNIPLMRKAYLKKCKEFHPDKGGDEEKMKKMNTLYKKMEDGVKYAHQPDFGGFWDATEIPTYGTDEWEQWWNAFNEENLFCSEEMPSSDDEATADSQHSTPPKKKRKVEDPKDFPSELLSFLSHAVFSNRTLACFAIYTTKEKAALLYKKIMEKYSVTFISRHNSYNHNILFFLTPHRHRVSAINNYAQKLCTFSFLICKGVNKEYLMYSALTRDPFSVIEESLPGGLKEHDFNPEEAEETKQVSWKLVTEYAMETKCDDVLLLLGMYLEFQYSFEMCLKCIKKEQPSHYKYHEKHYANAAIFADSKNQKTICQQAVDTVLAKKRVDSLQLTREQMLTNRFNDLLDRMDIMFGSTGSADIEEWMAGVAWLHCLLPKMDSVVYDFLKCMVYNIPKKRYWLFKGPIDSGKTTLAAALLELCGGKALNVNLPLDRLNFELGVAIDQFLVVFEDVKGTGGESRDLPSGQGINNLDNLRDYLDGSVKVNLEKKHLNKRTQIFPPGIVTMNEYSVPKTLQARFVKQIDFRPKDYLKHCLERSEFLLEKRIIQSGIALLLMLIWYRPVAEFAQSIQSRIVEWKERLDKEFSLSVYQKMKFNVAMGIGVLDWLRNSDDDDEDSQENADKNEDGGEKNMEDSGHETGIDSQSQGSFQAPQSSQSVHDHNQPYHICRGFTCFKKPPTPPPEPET

Leucine aminopeptidase = molecular target: T11, Leucine aminopeptidase (Plasmodium falciparum 3D7, UniProt Q8IL11); assay: P. falciparum M17LAP inhibitors, primary screen, biochemical, fluorogenic H-Leu-NHMec substrate, 1536-well (AID 1619); assay type: functional
T11 sequence (Q8IL11 whole entry): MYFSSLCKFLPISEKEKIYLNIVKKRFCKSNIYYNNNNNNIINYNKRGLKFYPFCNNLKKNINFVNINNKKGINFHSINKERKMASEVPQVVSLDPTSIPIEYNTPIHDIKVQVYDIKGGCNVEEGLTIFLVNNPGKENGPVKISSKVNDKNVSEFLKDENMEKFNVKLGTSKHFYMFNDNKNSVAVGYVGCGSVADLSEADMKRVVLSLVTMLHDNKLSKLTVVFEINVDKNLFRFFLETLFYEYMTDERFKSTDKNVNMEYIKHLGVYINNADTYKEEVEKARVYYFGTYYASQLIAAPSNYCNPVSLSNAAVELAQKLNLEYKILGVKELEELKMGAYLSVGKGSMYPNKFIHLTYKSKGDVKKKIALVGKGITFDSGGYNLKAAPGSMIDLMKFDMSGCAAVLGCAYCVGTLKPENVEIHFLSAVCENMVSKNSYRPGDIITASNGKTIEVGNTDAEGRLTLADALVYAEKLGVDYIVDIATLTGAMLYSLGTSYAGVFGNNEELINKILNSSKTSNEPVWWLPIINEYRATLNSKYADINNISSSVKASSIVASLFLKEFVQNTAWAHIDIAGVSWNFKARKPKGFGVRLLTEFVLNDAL

Cytochrome P450 2D6 = Cytochrome P450 2D6 (Homo sapiens, UniProt P10635); assay: qHTS Assay for Inhibitors and Substrates of Cytochrome P450 2D6. [Related pubchem assays: 410 ]; assay type: ADME; conditions: read-out: Potency
Sequence of Cytochrome P450 2D6 (P10635 whole entry): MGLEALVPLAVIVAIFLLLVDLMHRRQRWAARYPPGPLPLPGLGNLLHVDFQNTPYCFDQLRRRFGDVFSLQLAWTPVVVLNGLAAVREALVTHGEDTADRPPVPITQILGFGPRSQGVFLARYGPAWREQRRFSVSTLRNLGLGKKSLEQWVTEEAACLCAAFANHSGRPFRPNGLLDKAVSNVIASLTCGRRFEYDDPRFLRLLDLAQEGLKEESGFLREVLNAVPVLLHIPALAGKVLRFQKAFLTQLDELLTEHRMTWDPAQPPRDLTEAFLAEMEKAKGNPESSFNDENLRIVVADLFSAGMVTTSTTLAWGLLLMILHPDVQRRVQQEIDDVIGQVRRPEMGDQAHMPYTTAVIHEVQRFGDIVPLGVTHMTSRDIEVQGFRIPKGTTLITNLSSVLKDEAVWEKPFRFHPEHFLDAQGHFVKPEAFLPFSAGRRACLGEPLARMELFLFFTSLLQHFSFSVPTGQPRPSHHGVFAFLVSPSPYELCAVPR

Cytochrome P450 3A4 = Cytochrome P450 3A4 (Homo sapiens, UniProt P08684); conditions: Potency;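 note: confirmatory qHTS run detecting inhibitors and substrates of CYP3A4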
Sequence of Cytochrome P450 3A4 (P08684 whole entry): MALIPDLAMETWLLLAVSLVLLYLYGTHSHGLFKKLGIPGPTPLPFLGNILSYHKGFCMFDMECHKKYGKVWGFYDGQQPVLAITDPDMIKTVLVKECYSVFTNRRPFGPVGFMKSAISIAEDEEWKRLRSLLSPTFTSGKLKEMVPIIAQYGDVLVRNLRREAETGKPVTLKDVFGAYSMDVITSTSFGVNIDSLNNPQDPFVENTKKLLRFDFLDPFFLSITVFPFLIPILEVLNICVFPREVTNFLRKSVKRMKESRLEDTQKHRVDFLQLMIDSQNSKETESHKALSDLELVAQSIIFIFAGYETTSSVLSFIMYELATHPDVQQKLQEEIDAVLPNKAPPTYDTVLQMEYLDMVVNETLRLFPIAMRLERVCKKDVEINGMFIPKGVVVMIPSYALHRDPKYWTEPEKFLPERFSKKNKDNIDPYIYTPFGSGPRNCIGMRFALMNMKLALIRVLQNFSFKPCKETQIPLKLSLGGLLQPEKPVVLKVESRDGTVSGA

In the case of `Clc1ccccc1-c1nnn(Cc2ccc(-c3nnn[nH]3)cc2)n1`, the IC50 [1] is reported as > 43.8 µM (not active), the IC50 [2] is reported as > 43.8 µM (not active) and the EC50 [3] is reported as 4.37 µM (active).

In the case of `O=C(Nc1nc(-c2ccc(Cl)cc2)cs1)c1ccc(Cl)cc1`, the CC50 (Vero) is reported as > 40 µM (active).

With `O=C1NCN(c2ccccc2)C12CCN(C[C@H]1COc3ccccc3O1)CC2` the AC50 (Cytochrome P450 1A2) was 20 µM (inconclusive), the AC50 (Cytochrome P450 2C9 [4]) was 15.8 µM (inconclusive) and the AC50 (Cytochrome P450 2C9 [5]) was 31.6 µM (inconclusive).

`COc1ccc(-n2nc3ccc(NS(C)(=O)=O)cc3n2)cc1Cl` was tested, and the IC50 (HEK293) was > 35.4 µM (not active), the EC50 [6] was > 35.4 µM (not active) and the EC50 [7] was > 35.4 µM (not active).

For `O=C(Oc1ccc2ccccc2c1)c1ccc2c(c1)C1C=CCC1C(C(=O)O)N2` (stereo unspecified), the IC50 [8] was 43.9 µM (active), the IC50 [9] was 95.2 µM (active) and the IC50 [10] was 24.7 µM (active). For the same compound, the IC50 [11] was 20.3 µM (active), the IC50 [12] was 2.04 µM (active) and the IC50 [13] was 76.8 µM (active).

With `Cc1nc(-c2ccc(O)c(O)c2)cs1` the IC50 (Aspartyl aminopeptidase) was 1.3 µM (active), the EC50 [14] was 36.6 µM (active) and the IC50 (Estrogen receptor beta [15]) was 87.3 µM (not active). The IC50 (Estrogen receptor beta [16]) was 10.2 µM (active), the EC50 [17] was 21.3 µM (active) and the IC50 (Procathepsin L) was > 59.6 µM (not active). The IC50 (Large T antigen) was 6.46 µM (active) and the IC50 (Leucine aminopeptidase) was 25.1 µM (active).

In the case of `C=CCOCC/C=C1/c2ccccc2C(OC)C1C` (stereo unspecified), the AC50 (Cytochrome P450 2D6) is reported as 3.16 µM (inconclusive) and the AC50 (Cytochrome P450 3A4) is reported as 3.16 µM (inconclusive).
